Laboratory results as given in US4061748A, “7-(α-(4 -Hydroxy-1,5-naphthyridine-3-carbonamido)-α-phenylacetamido) cephalosporin derivatives” (Sumitomo Chemical Company, Limited, priority 1975, dated 1977).
Converted amounts (≈) assume the structure as drawn.

How the values were obtained:
[1] = test system: Enterobacter aerogenes No. 75; assay: Minimum inhibitory concentration, nutrient broth dilution method; format: cell-based; conditions: Klebsiella aerogenes
Protocol: (§1) The minimum inhibitory concentrations obtained with the example compounds, Compound (A) and Compound (B), against the following organisms representing 6 genera are shown in Table 1.
(§2) MIC was determined by the nutrient broth dilution method.

[2] = test system: Klebsiella pneumoniae PCI 602; assay: as above; format: cell-based; conditions: PCI602
Protocol: as §1, §2

Escherichia coli NIHJ = assay: as above; format: cell-based
Protocol: as §1, §2

[3] = test system: Proteus mirabilis GN 2425; assay: as above; format: cell-based; conditions: GN2425
Protocol: as §1, §2

Serratia No. 72 = assay: as above; format: cell-based
Protocol: as §1, §2

Pseudomonas aeruginosa T [4] = assay: as above; format: cell-based
Protocol: as §1, §2

[5] = test system: Enterobacter aerogenes No. 75; assay: Median protective dose against intraperitoneal infection in mice; format: in vivo, Enterobacter aerogenes; male ICR-SLC strain mice; conditions: Klebsiella aerogenes, sc; Enterobacter aerogenes No. 75, intraperitoneal infection; two subcutaneous treatments, 1 and 4 hours after infection; read-out: PD50
Description: (§3) The relative activities of the compounds of the present invention, Compound (A) and Compound (B) against various intraperitoneal infections in mice evaluated by mean median protective doses (subcutaneously administered) are shown in Table 3.
(§4) For each test, eight male ICR-SLC strain mice were used at each dose

[6] = Antibiotic serum concentrations in mice following subcutaneous administration (disc method bioassay); format: in vivo, ICR-SLC strain mice; conditions: mouse, sc, 50 mg/kg; for Cmax: read-out: Peak concentration
Protocol: The antibiotic serum concentrations of the six cephalosporins following subcutaneous administration at 50 mg/kg to ICR-SLC strain mice are shown in Table 2.
The bioassay was carried out according to the disc method using
Pseudomonas aeruginosa.

Serratia No. 75 [7] = assay: Median protective dose against intraperitoneal infection in mice; format: in vivo, Serratia; male ICR-SLC strain mice; conditions: sc; Serratia No. 75, intraperitoneal infection; two subcutaneous treatments, 1 and 4 hours after infection; read-out: PD50
Description: as §3, §4

Pseudomonas aeruginosa T [8] = assay: as above; format: in vivo, Pseudomonas aeruginosa; male ICR-SLC strain mice; conditions: sc, two subcutaneous treatments, 1 and 4 hours after infection, read-out: PD50
Description: as §3, §4

Serratia No. 75 [9] = assay: Minimum inhibitory concentration, nutrient broth dilution method (Table 3); format: cell-based
Protocol: as §2

Escherichia coli No. 37 [10] = assay: as above; format: cell-based
Protocol: as §2

Escherichia coli No. 37 [11] = assay: Median protective dose against intraperitoneal infection in mice; format: in vivo, Escherichia coli; male ICR-SLC strain mice; conditions: sc; Escherichia coli No. 37, intraperitoneal infection; two subcutaneous treatments, 1 and 4 hours after infection; read-out: PD50
Description: as §3, §4

SMILES | MIC [1] | MIC [2] | MIC (Escherichia coli NIHJ) | MIC [3] | MIC (Serratia No. 72) | MIC (Pseudomonas aeruginosa T [4]) | ED50 [5] | Cmax [6] | ED50 (Serratia No. 75 [7]) | ED50 (Pseudomonas aeruginosa T [8]) | MIC (Serratia No. 75 [9]) | MIC (Escherichia coli No. 37 [10]) | ED50 (Escherichia coli No. 37 [11]) | half-life [6]
CC(=O)OCC1=C(C(=O)O)N2C(=O)C(NC(=O)[C@H](NC(=O)c3cnc4ccccc4c3O)c3ccccc3)C2SC1 (stereo partly drawn) [Compound (A), sodium 7-[D-α-(4-hydroxyquinoline-3-carboxyamino)-α-phenylacetamido] cephalosporanate, reference compound] | 25 µg/mL | 0.78 µg/mL | 6.25 µg/mL | 25 µg/mL | 100 µg/mL | 12.5 µg/mL | 200 mg/kg | < 900 ng/mL | > 150 mg/kg | > 100 mg/kg | 100 µg/mL | 12.5 µg/mL | > 200 mg/kg | –
CC(=O)OCC1=C(C(=O)O)N2C(=O)C(NC(=O)[C@H](NC(=O)c3cnccc3O)c3ccccc3)C2SC1 (stereo partly drawn) [Compound (B), sodium 7-[D-α-(4-hydroxypyridine-3-carboxyamino)-α-phenylacetamido] cephalosporanate, reference compound] | 25 µg/mL | 12.5 µg/mL | 12.5 µg/mL | 50 µg/mL | > 200 µg/mL | 25 µg/mL | 170 mg/kg | 26000 ng/mL | > 150 mg/kg | 92 mg/kg | > 200 µg/mL | 25 µg/mL | 170 mg/kg | 30 min
CC(=O)OCC1=C(C(=O)O)N2C(=O)C(NC(=O)[C@H](NC(=O)c3cnc4cccnc4c3O)c3ccccc3)C2SC1 (stereo partly drawn) [Example 1, 7-[D-α-(4-Hydroxy-1,5-naphthyridine-3-carboxyamido)-α-phenylacetamido] cephalosporanic acid] | 6.25 µg/mL (≈ 10.8 µM) | 1.56 µg/mL (≈ 2.7 µM) | 3.13 µg/mL (≈ 5.42 µM) | 12.5 µg/mL (≈ 21.6 µM) | 50 µg/mL (≈ 86.6 µM) | 6.25 µg/mL (≈ 10.8 µM) | 50 mg/kg | 44000 ng/mL | 65 mg/kg | 18 mg/kg | 50 µg/mL (≈ 86.6 µM) | 6.25 µg/mL (≈ 10.8 µM) | 50 mg/kg | 25 min
Cc1nnc(SCC2=C(C(=O)O)N3C(=O)C(NC(=O)[C@H](NC(=O)c4cnc5cccnc5c4O)c4ccccc4)C3SC2)s1 (stereo partly drawn) [Example 2, 7-[D-α-(4-Hydroxy-1,5-naphthyridine-3-carboxyamido)-α-phenylacetamido]-3-(2-methyl-1,3,4-thiadiazole-5-yl)thiomethyl-3-cephem-4-carboxylicacid] | 3.13 µg/mL (≈ 4.82 µM) | 0.78 µg/mL (≈ 1.2 µM) | 1.56 µg/mL (≈ 2.4 µM) | 12.5 µg/mL (≈ 19.2 µM) | 12.5 µg/mL (≈ 19.2 µM) | 6.25 µg/mL (≈ 9.62 µM) | 28 mg/kg | 38000 ng/mL | 30 mg/kg | 23 mg/kg | 12.5 µg/mL (≈ 19.2 µM) | 6.25 µg/mL (≈ 9.62 µM) | 41 mg/kg | 35 min
Cn1nnnc1SCC1=C(C(=O)O)N2C(=O)C(NC(=O)[C@H](NC(=O)c3cnc4cccnc4c3O)c3ccccc3)C2SC1 (some centres unmarked) [Example 3] | 3.13 µg/mL (≈ 4.94 µM) | 0.39 µg/mL (≈ 0.615 µM) | 0.78 µg/mL (≈ 1.23 µM) | 12.5 µg/mL (≈ 19.7 µM) | 12.5 µg/mL (≈ 19.7 µM) | 12.5 µg/mL (≈ 19.7 µM) | 25 mg/kg | 24000 ng/mL | 25 mg/kg | 28 mg/kg | 6.25 µg/mL (≈ 9.86 µM) | 3.13 µg/mL (≈ 4.94 µM) | 28 mg/kg | 25 min
O=C(O)C1=C(CSc2cnn[nH]2)CSC2C(NC(=O)[C@H](NC(=O)c3cnc4cccnc4c3O)c3ccccc3)C(=O)N12 (stereo partly drawn) [Example 4, 7-[d-α-(4-hydroxy-1,5-naphthyridine-3-carboxyamido)-α-phenylacetamido]-3-(1,2,3-triazole-5-yl)thiomethyl-3-cephem-4-carboxylic acid] | 3.13 µg/mL (≈ 5.06 µM) | 1.56 µg/mL (≈ 2.52 µM) | 1.56 µg/mL (≈ 2.52 µM) | 25 µg/mL (≈ 40.4 µM) | 25 µg/mL (≈ 40.4 µM) | 12.5 µg/mL (≈ 20.2 µM) | 30 mg/kg | 26000 ng/mL | 30 mg/kg | 30 mg/kg | 12.5 µg/mL (≈ 20.2 µM) | 6.25 µg/mL (≈ 10.1 µM) | 45 mg/kg | 30 min
